Test results taken from patent US20050159345A1 (Boehringer Ingelheim International GmbH, priority 2002, published 2005).

Assays:
HCV replicon 1b = assay: Cell-based HCV 1b RNA replicon assay; conditions: Hepatitis C virus, 72 h; Huh-7-derived replicon cells, 3 day incubation, HCV RNA by RT-PCR
Description: (§1) These cells were used to establish a sensitive HCV RNA replication cell-based assay for testing candidate test compounds.
(§2) Huh7 cells that stably maintain a subgenomic HCV replicon were established as previously described (Lohman et al. 1999; WO 02/052015). The cells were seeded into a 96 well cell culture cluster at 1×10^4 cells per well in DMEM complemented with 10% FBS, PenStrep (Life Technologies) and […] Geneticin. Cells were incubated in a 5% CO2 incubator at 37° C. until addition of various concentrations of the test compound.
(§3) The test compound was prepared for use in the assay as follows. The test compound in 100% DMSO was added diluted in assay Medium for a final DMSO concentration of 0.5% and the solution was sonicated for 15 min and filtered through a […] Millipore Filter Unit. Serial dilutions of the test compounds were prepared using Assay Medium (containing 0.5% DMSO).
(§4) Cell culture medium was aspirated from the 96-well plate containing the cells and the appropriate dilution of test compound in assay medium was transferred to independent wells of the cell culture plate which was incubated at 37° with 5% CO2.
(§5) Following a 3 day-incubation period, the cells were washed with PBS and total cellular RNA was extracted with the RNeasy Mini Kit® and Qiashredder® from Qiagen. RNA from each well was eluted in 50 μL of H2O. RNA was quantified by optical density at 260 nm on the Cary 1E® UV-Visible spectrophotometer. The HCV RNA replicon copy number was evaluated by real-time RT-PCR with the Abi Prism® 7700 Sequence Detection System. The TAQMAN E® RT-PCR kit provides a system for the detection and analysis of RNA. Direct detection of the reverse transcription polymerase chain reaction (RT-PCR) product with no downstream processing was accomplished by monitoring the increase in fluorescence of a dye-labeled DNA probe. The nucleotide sequence of both primers and probe was located in the 5′ region of the HCV genome. The replicon copy number was then evaluated using a standard curve made with known amounts of replicon copy (supplemented with 50 ng of wild type Huh-7 RNA) assayed in the same reaction mix. The following thermal cycle parameters were used for the RT-PCR reaction on the ABI Prism® 7700 Sequence Detection System. Conditions were optimized for HCV detection. Quantification is based on the threshold cycle, where the amplification plot crosses a defined fluorescence threshold. Comparison of the threshold cycles provides a highly sensitive measure of relative template concentration in different samples. Monitoring during early cycles, when PCR fidelity is at its highest, provides precise data for accurate quantification. The relative template concentration can be converted to real numbers by using the standard curve of HCV with known number of copy.
(§6) The level of inhibition (% inhibition) of each well containing test compound was calculated with the following equation (CN═HCV Replicon copy number): [formula]
(§7) The calculated % inhibition values were then used to determine EC50, slope factor (n) and maximum inhibition (Imax) by the non-linear regression routine NLIN procedure of SAS using the following equation: [formula]

HCV replicon 1a = assay: Cell-based HCV 1a RNA replicon assay; conditions: Hepatitis C virus, 72 h; Huh-7-derived replicon cells, 3 day incubation, HCV RNA by RT-PCR
Description: as §1, §2, §3, §4, §5, §6, §7

SMILES | EC50 (HCV replicon 1b) | EC50 (HCV replicon 1a)
COc1ccc2c(O[C@@H]3C[C@H]4C(=O)N[C@]5(C(=O)NS(=O)(=O)C6CC6)CC5/C=C\CCCCC[C@H](NC(=O)OC5CCCC5)C(=O)N4C3)cc(-c3csc(NC(C)C)n3)nc2c1 (stereo partly drawn) | 1.1 nM | 0.7 nM
COc1ccc2c(O[C@@H]3C[C@H]4C(=O)N[C@]5(C(=O)NS(C)(=O)=O)CC5/C=C\CCCCC[C@H](NC(=O)OC5CCCC5)C(=O)N4C3)cc(-c3csc(NC(C)C)n3)nc2c1 (stereo partly drawn) [VII] | 3.3 nM | 3.2 nM
COc1ccc2c(O[C@@H]3C[C@H]4C(=O)N[C@]5(C(=O)NS(=O)(=O)c6ccccc6)CC5/C=C\CCCCC[C@H](NC(=O)OC5CCCC5)C(=O)N4C3)cc(-c3csc(NC(C)C)n3)nc2c1 (stereo partly drawn) [VI] | 3 nM | 2.2 nM
